Patent US20050124562A1, “Bis-quinazoline compounds for the treatment of bacterial infections” (priority 2003, published 2005)
In brackets after ≈: the same amount, converted by molar mass. Where a name gives a salt, the structure may show the parent alone. Read-outs that look alike come from different tables or passages of the source.

What was measured:
Format in all cases: cell-based
[1] = tested on: efflux mutants of P. aeruginosa; experiment: Broth microdilution MIC (NCCLS), P. aeruginosa efflux mutants; settings: for MICs: efflux mutants of P. aeruginosa; for MIC: Pseudomonas aeruginosa, read-out: MICs
Description: (§1) Representative bis-quinazolines were tested for antibacterial activity using the […] microdilution method to determine their minimum inhibitory concentrations (MICs). All compounds were tested using standard methods in accordance with NCCLS guidelines (National Committee for Clinical Laboratory Standards. 2003. Methods for dilution antimicrobial susceptibility testing for bacteria that grow aerobically. Approved Standard M-7 A-6, NCCLS, Wayne, Pa.). The bacterial strains used in the susceptibility tests were obtained from the American Type Culture Collection (ATCC) and included resistant phenotypes such as oxacillin-resistant S. aureus (ORSA) and vancomycin-resistant enterococci (VRE). The minimum bactericidal concentrations (MBCs) were determined for selected organisms. The effect of protein binding on the antibacterial activity of representative bis-quinazolines were determined by conducting MIC tests in the presence of human serum.

[2] = tested on: S. aureus, E. faecalis, S. pyogenes and S. pneumoniae; experiment: Broth microdilution MIC (NCCLS), gram-positive strains
How it was run: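 MICs by broth microdilution per NCCLS M-7 A-6 against ATCC strains, including ORSA and VRE; MBCs determined for selected organisms. Serum effect assessed by repeating MIC tests with human serum present.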

[3] = tested on: M. catarrhalis; experiment: Broth microdilution MIC (NCCLS), M. catarrhalis; settings: Moraxella catarrhalis, read-out: MIC range
Description: as §1

[4] = tested on: H. influenzae; experiment: Broth microdilution MIC (NCCLS), H. influenzae; settings: Haemophilus influenzae; some strains of H. influenzae
Description: as §1

[5] = tested on: efflux mutants of E. coli; experiment: Broth microdilution MIC (NCCLS), E. coli efflux mutants; settings: Escherichia coli, read-out: MICs
Description: as §1

[6] = range against some strains of S. aureus, E. faecalis, S. pyogenes and S. pneumoniae, read-out: MIC

Molecule	MIC [4] [µg/mL]	MIC [5] [µg/mL]	MIC [1] [µg/mL]	MIC [2, 6] [µg/mL]	also measured
2-[4-Hydroxy-6-(2-morpholin-4-yl-ethoxy)-quinazolin-2-ylamino]-6,7-dimethoxy-quinazolin-4-ol trifluoroacetate salt [Example 150]	–	–	–	–	MICs [1]: 64 µg/mL
Cc1nc(Nc2nc(C)c3ccc4c(c3n2)OCCO4)nc2ccc(OCCN3CCC(O)C3)cc12 (stereo not drawn) [Example 12, 1-{2-[4-Methyl-2-(8-methyl-2,3-dihydro-1,4-dioxa-5,7-diaza-phenanthren-6-ylamino)-quinazolin-6-yloxy]-ethyl}-pyrrolidin-3-ol]	16 to 32 (≈ 32.8 to 65.5 µM)	16 to 64 (≈ 32.8 to 131 µM)	64 (≈ 131 µM)	–	MIC [2]: 0.06 to 16 µg/mL (≈ 0.123 to 32.8 µM); MIC [3]: 2 to 64 µg/mL (≈ 4.09 to 131 µM)
COc1ccc2nc(Nc3nc(O)c4cc(OC)c(OC)c(OC)c4n3)nc(C)c2c1.O=C(O)C(F)(F)F [Example 18, 6,7,8-Trimethoxy-2-(6-methoxy-4-methyl-quinazolin-2-ylamino)-quinazolin-4-ol trifluoroacetate salt]	16 to 32	16 to 64	64	0.06 to 16	MIC ([3]; some strains of M. catarrhalis): 2 to 64 µg/mL
COc1ccc2nc(Nc3nc(O)c4cc(C)cc(C)c4n3)nc(C)c2c1 [Example 19, 2-(6-Methoxy-4-methyl-quinazolin-2-ylamino)-6,8-dimethyl-quinazolin-4-ol]	16 to 32 (≈ 44.3 to 88.5 µM)	16 to 64 (≈ 44.3 to 177 µM)	64 (≈ 177 µM)	–	MIC [2]: 0.06 to 16 µg/mL (≈ 0.166 to 44.3 µM); MIC [3]: 2 to 64 µg/mL (≈ 5.53 to 177 µM)
COc1ccc2nc(Nc3nc(O)c4cc(C)cc(Br)c4n3)nc(C)c2c1 [Example 39, 8-Bromo-2-(6-methoxy-4-methyl-quinazolin-2-ylamino)-6-methyl-quinazolin-4-ol trifluoroacetate salt]	16 to 32	16 to 64	64	–	MIC [2]: 0.06 to 16 µg/mL; MIC [3]: 2 to 64 µg/mL
COc1cc2nc(Nc3nc(O)c4cc([N+](=O)[O-])cc(C)c4n3)nc(C)c2cc1OC.O=C(O)C(F)(F)F [Example 66]	–	–	–	–	MICs [1]: 64 µg/mL
COc1cc2c(C)nc(Nc3nc(O)c4cccc(OC)c4n3)nc2cc1[N+](=O)[O-].O=C(O)C(F)(F)F [Example 77, 2-(6-methoxy-7-nitro-4-methyl-quinazolin-2-ylamino)-8-methoxy-quinazolin-4-ol trifluoroacetate salt]	16 to 32	16 to 64	64	0.06 to 16	MIC ([3]; some strains of M. catarrhalis): 2 to 64 µg/mL
COc1cc2nc(Nc3nc(O)c4c(OC)cccc4n3)nc(C)c2cc1OC.O=C(O)C(F)(F)F [Example 84, 2-(6,7-Dimethoxy-4-methyl-quinazolin-2-ylamino)-5-methoxy-quinazolin-4-ol trifluoroacetate salt]	16 to 32	16 to 64	64	0.06 to 16	MIC ([3]; some strains of M. catarrhalis): 2 to 64 µg/mL
COc1cc(OC)c2nc(Nc3nc(O)c4c(OC)cccc4n3)nc(C)c2c1.O=C(O)C(F)(F)F [Example 85, 2-(6,8-Dimethoxy-4-methyl-quinazolin-2-ylamino)-5-methoxy-quinazolin-4-ol trifluoroacetate salt]	16 to 32	16 to 64	64	0.06 to 16	MIC ([3]; some strains of M. catarrhalis): 2 to 64 µg/mL
COc1cc2c(C)nc(Nc3nc(O)c4cccc(OC)c4n3)nc2cc1F.O=C(O)C(F)(F)F [Example 86, 2-(7-Fluoro-6-methoxy-4-methyl-quinazolin-2-ylamino)-8-methoxy-quinazolin-4-ol trifluoroacetate salt]	16 to 32	16 to 64	64	0.06 to 16	MIC ([3]; some strains of M. catarrhalis): 2 to 64 µg/mL
COc1cc2nc(Nc3nc(O)c4cccc(OC)c4n3)nc(CF)c2cc1OC.O=C(O)C(F)(F)F [Example 87, 2-(4-Fluoromethyl-6,7-dimethoxy-quinazolin-2-ylamino)-8-methoxy-quinazolin-4-ol trifluoroacetate salt]	16 to 32	16 to 64	64	0.06 to 16	MIC ([3]; some strains of M. catarrhalis): 2 to 64 µg/mL
COc1cc2nc(Nc3nc(O)c4cc(OCCN5CCC(O)C5)ccc4n3)nc(C)c2cc1OC.O=C(O)C(F)(F)F (stereo not drawn) [Example 155, 2-(6,7-Dimethoxy-4-methyl-quinazolin-2-ylamino)-6-[2-(3-hydroxy-pyrrolidin-1-yl)-ethoxy]-quinazolin-4-ol trifluoroacetate salt]	–	–	–	–	MICs [1]: 64 µg/mL
COc1cc2nc(Nc3nc(O)c4cc(OCCN5CCC(O)C5)ccc4n3)nc(C)c2cc1OC.O=C(O)C(F)(F)F (stereo not drawn) [Example 156, 2-(6,7-Dimethoxy-4-methyl-quinazolin-2-ylamino)-6-[2-(3-hydroxy-pyrrolidin-1-yl)-ethoxy]-quinazolin-4-ol trifluoroacetate salt]	–	–	–	–	MICs [1]: 64 µg/mL
COc1cc2nc(Nc3nc(O)c4cc(OCCNC(CO)CC(C)C)ccc4n3)nc(C)c2cc1OC (stereo not drawn) [Example 162, 2-(6,7-Dimethoxy-4-methyl-quinazolin-2-ylamino)-6-{2-[(1-hydroxymethyl-3-methylbutyl)-amino]-ethoxy}-quinazolin-4-olTrifluoroacetate salt]	–	–	–	–	MICs [1]: 64 µg/mL
COc1cc2nc(Nc3nc(O)c4cc(OCCN5CC(C)OC(C)C5)ccc4n3)nc(C)c2cc1OC.O=C(O)C(F)(F)F (stereo not drawn) [Example 177, 2-(6,7-Dimethoxy-4-methyl-quinazolin-2-ylamino)-6-[2-(2,6-dimethyl-morpholin-4-yl)-ethoxy]-quinazolin-4-ol trifluoroacetate salt]	–	–	–	0.06 to 16	–
COc1cc2nc(Nc3nc(O)c4cc(OCCNCCOCCO)ccc4n3)nc(C)c2cc1OC.O=C(O)C(F)(F)F [Example 179, 2-(6,7-Dimethoxy-4-methyl-quinazolin-2-ylamino)-6-{2-[2-(2-hydroxy-ethoxy)-ethylamino]-ethoxy}-quinazolin-4-ol trifluoroacetate salt]	–	–	–	0.06 to 16	–
COc1cc2nc(Nc3nc(O)c4cc(OCCN5CCCC5CN5CCCC5)ccc4n3)nc(C)c2cc1OC.O=C(O)C(F)(F)F (stereo not drawn) [Example 180, 2-(6,7-Dimethoxy-4-methyl-quinazolin-2-ylamino)-6-[2-(2-pyrrolidin-1-ylmethyl-pyrrolidin-1-yl)-ethoxy]-quinazolin-4-ol trifluoroacetate salt]	–	–	–	0.06 to 16	–
COc1cc2nc(Nc3nc(O)c4cc(OCCNC5CCCCC5O)ccc4n3)nc(C)c2cc1OC.O=C(O)C(F)(F)F (stereo not drawn) [Example 181, 2-(6,7-Dimethoxy-4-methyl-quinazolin-2-ylamino)-6-[2-(2-hydroxy-cyclohexylamino)-ethoxy]-quinazolin-4-ol trifluoroacetate salt]	–	–	–	0.06 to 16	–
COc1cc2nc(Nc3nc(O)c4cc(OCCN(C)Cc5cccnc5)ccc4n3)nc(C)c2cc1OC.O=C(O)C(F)(F)F [Example 182, 2-(6,7-Dimethoxy-4-methyl-quinazolin-2-ylamino)-6-[2-(methyl-pyridin-3-ylmethyl-amino)-ethoxy]-quinazolin-4-ol trifluoroacetate salt]	–	–	–	0.06 to 16	–
COc1cc2nc(Nc3nc(O)c4cc(OCCNCCc5ccncc5)ccc4n3)nc(C)c2cc1OC.O=C(O)C(F)(F)F [Example 183, 2-(6,7-Dimethoxy-4-methyl-quinazolin-2-ylamino)-6-[2-(2-pyridin-4-yl-ethylamino)-ethoxy]-quinazolin-4-ol TFA salt]	–	–	–	0.06 to 16	–
COc1cc2nc(Nc3nc(O)c4cc(OCCN(C)Cc5ccncc5)ccc4n3)nc(C)c2cc1OC.O=C(O)C(F)(F)F [Example 184, 2-(6,7-Dimethoxy-4-methyl-quinazolin-2-ylamino)-6-[2-(methyl-pyridin-4-ylmethyl-amino)-ethoxy]-quinazolin-4-ol TFA salt]	–	–	–	0.06 to 16	–
